8 compounds from patent US9463256B2, “Pretargeting kit, method and agents used therein” (KONINKLIJKE PHILIPS N.V., priority 2010, dated 2016) can be followed below.

The nature of series [1]: Trans-cyclooctene stability in vivo (blood samples reacted with excess ^111In-tetrazine 28). Further details: species or system mice. To be noted: for in vivo stability of CC49-bound TCO (reactive TCO in blood, corrected for mAb clearance): tumor-free mice, up to 4 days post injection. How it is done: Tumor-free mice (n=3 per group) were injected intravenously with CC49-PEG10-TCO-O major (CC49-23a; 8.4 TCO per CC49; 300 μg/100 μL per mouse), CC49-PEG10-TCO-C minor (CC49-27b; 3.3 TCO per CC49, […]), and CC49-TCO-O major without spacer (CC49-20a; 8.0 TCO per CC49, 300 μg/100 μL per mouse). At selected time points (from 1 hour up to 4 days post injection) blood samples were withdrawn from the vena saphena and collected in vials containing heparin. The blood samples were weighed and an excess ^111In-tetrazine 28 was added. After 20 min incubation at 37° C., blood aliquots were 10-fold diluted with PBS and analyzed by SDS-PAGE. The cycloaddition yields were determined from the radioactivity in the bands corresponding to the mAb and the counts were quantified with AIDA Image Analyzer software. The amount of mAb present in blood at each time point (% ID/g blood) was evaluated in three separate groups of mice (n=3), which were injected with the corresponding ^125I—CC49-TCO (300 μg/100 μL per mouse, ca. 0.2 MBq). The data, corrected for mAb clearance, were normalized to 100% ID TCO at t=0.
This experiment was carried out to expand the series of in vivo TCO stability measurements described in Example 6. […] In the new experiment, following the same procedure, we tested the in vivo stability of a CC49-bound TCO minor without PEG spacer (20b, 6.9 equivalents bound).

A short description of series [2]: In vitro reaction yields of CC49-bound TCO with tetrazine probe 28 at low concentration. To be noted: TCO conjugated to CC49; 1 min at 37° C. in PBS; micromolar concentrations and lower. The series is classed as physicochemical. The protocol: To this aim we used a TCO major 20a (k2=19600±1400 M^−1s^−1) and a TCO minor 20b (k2=136700±2300 M^−1s^−1) conjugated to CC49 (6.1 and 6.6 TCOs per molecule for major and minor, respectively). The two mAb solutions were diluted in PBS to obtain TCO concentrations ranging from 1×10^−5M to 1×10^−8M and were reacted with carrier-added ^177Lu-tetrazine (1 eq. with respect to mAb) for 1 min at 37° C. Aliquots of the reaction mixtures (20 μl) where then quenched with an excess of tetrazine 6, added with non-reducing sample buffer and analyzed by SDS-PAGE. The cycloaddition yields were determined from the radioactivity in the bands corresponding to the mAb and the counts were quantified with the AIDA Image Analyzer software. The experiments were repeated in triplicate. As expected for a bimolecular reaction, a decrease in the concentration of the two reactive species in solution translates into lower reaction yields after 1 min incubation (FIG. 18).

Series [3] is described as follows: Second order kinetic constants of the reactions between CC49-TCO constructs and ^177Lu-28. The series is classed as physicochemical. The settings on record: TCO conjugated to CC49, reaction with ^177Lu-28 in PBS, pH 7.4 at 37° C. How it is done: Typically, 1 mg CC49 (5 mg/mL solution in PBS) was modified with 0.6 molar (for kinetic measurements) or 10 molar eq. (for in vivo studies) of TCO-NHS constructs in a total volume of 250 μL PBS. The pH was adjusted to 9 with 1 M sodium carbonate buffer. The reactions were carried out under agitation for 30 min at RT in the dark. Subsequently, the TCO-modified mAbs were extensively washed with PBS using Amicon Ultra-15 centrifugal devices. The numbers of TCO groups per antibody were determined with a tetrazine titration, outlined below.
Tetrazine-DOTA 28 was radiolabeled with carrier-added ^177Lu. mAb (25 μg) modified with ca. 0.6 molar eq. TCO was reacted with 3 molar eq. of ^177Lu-28 (0.5 nM). mAb (25 μg) modified with ca. 10 molar eq. TCO was reacted with 15 molar eq. of ^177Lu-28 (2.5 nM). The reactions were carried out in 50 μL PBS pH 7.4 at 37° C. for 10 min. The reaction mixtures were analyzed by SDS-PAGE and phosphor imager and the reaction yields were determined from the radioactivity in the bands corresponding to the mAb. The counts were quantified with AIDA Image Analyzer software (Raytest).
Tetrazine-DOTA 28 was radiolabeled with carrier-added ^177Lu at a specific activity of 3 MBq/μg. ^177Lu-28 (33 nM) was reacted with increasing concentrations of CC49 modified with 1 eq. of TCO (0.33, 1, and 1.67 μM) in 200 μL PBS, pH 7.4 at 37° C. for 5 min. At selected times (15, 30, 45, 60, 90, 120, 180, and 300 sec) a 20 μL sample was withdrawn and quenched with tetrazine 6 (FIG. 5; described in Rossin et al. Angew Chem Int Ed 2010, 49, 3375) (1.5 μL, 5 mg/mL in DMF). Aliquots of each mixture were analyzed by SDS-PAGE and phosphor imager and the cycloaddition yields were determined from the radioactivity in the bands corresponding to the mAb. The counts were quantified with AIDA Image Analyzer software (Raytest).
The newly synthesized TCO constructs were evaluated with respect to their reactivity towards tetrazine 28. The procedures are described in Example 5.

Series [4] is described as follows: Reactivity of tetrazines, competition experiment against reference tetrazine. Format: physicochemical. The settings on record: reference 3-(5-acetamido-2-pyridyl)-6-(2-pyridyl)-1,2,4,5-tetrazine; reaction with 10b. The protocol:
A competition experiment was performed to determine the reactivity ratio of a specific tetrazine and 3-(5-acetamido-2-pyridyl)-6-(2-pyridyl)-1,2,4,5-tetrazine (that was chosen as the reference tetrazine), in the inverse-electron demand Diels-Alder reaction with trans-cyclooct-4-ene-1-ol (minor isomer, 10b).
To acetonitrile (0.100 mL) was added 5 μL of a solution of the specific tetrazine in DMSO (25 mM) and 5 μL of a solution of the reference tetrazine in DMSO (25 mM). This mixture was diluted with water (0.9 mL), and the absolute amounts of both tetrazines were determined by LC-MS/PDA analysis. Subsequently, a solution of trans-cyclooct-4-ene-1-ol (minor isomer, 10b) in DMSO (25 μL 2.5 mM) was added, and the mixture was stirred for 5 min. Again, the absolute amounts of both tetrazines were determined by LC-MS/PDA analysis, and conversions for both tetrazines was calculated. From these conversions, the reactivity ratio of both tetrazines was determined.

With `O=C(ON1C(=O)CCC1=O)c1ccc(COC2CC/C=C/CCC2)cc1` (centres unmarked) [20a, (E-major)-2,5-Dioxopyrrolidin-1-yl 4-((cyclooct-4-enyloxy)methyl)benzoate], the “time stable in vivo” value in series [1] (TCO bound to CC49, tumor-free mice) is listed as “at least 4 days”.

With `O=C(ON1C(=O)CCC1=O)c1ccc(COC2CC/C=C/CCC2)cc1` (centres unmarked) [20b, (E-minor)-2,5-Dioxopyrrolidin-1-yl 4-((cyclooct-4-enyloxy)methyl)benzoate], in series [1], the “in vivo stability of CC49-bound TCO (reactive TCO in blood, corrected for mAb clearance)” value (shortened to “in vivo stability of CC49-bound TCO”) is “only slowly degrade in vivo”. The “reaction yields with ^177Lu-tetrazine versus equatorial TCO 20a” value in series [2] is on record as “significantly higher”. As to `O=C(CCOCCOCCOCCOCCOCCOCCOCCOCCOCCOCCOCCOCCNC(=O)c1ccc(COC2CC/C=C/CCC2)cc1)ON1C(=O)CCC1=O` (centres unmarked) [23a, (E-major)-2,5-Dioxopyrrolidin-1-yl 1-(4-((cyclooct-4-en-1-yloxy)methyl)phenyl)-1-oxo-5,8,11,14,17,20,23,26,29,32,35,38-dodecaoxa-2-azahentetracontan-41-oate], the “in vivo stability of CC49-bound TCO” value in series [1] was “unstable in vivo”. Also, in series [3], the “Second order kinetic constant, PEG10 Spacer” value is given as “(23a) 16500 ± 1400 M^−1s^−1”. As for `O=C(CCOCCOCCOCCOCCOCCOCCOCCOCCOCCOCCOCCOCCNC(=O)c1ccc(NC(=O)OC2CC/C=C/CCC2)cc1)ON1C(=O)CCC1=O` (centres unmarked) [27b, (E-minor)-2,5-dioxopyrrolidin-1-yl 1-(4-(((cyclooct-4-en-1-yloxy)carbonyl)amino)phenyl)-1-oxo-5,8,11,14,17,20,23,26,29,32,35,38-dodecaoxa-2-azahentetracontan-41-oate], the “in vivo stability of CC49-bound TCO” value in series [1] was “unstable in vivo”. Further, the “Second order kinetic constant, PEG10 Spacer” value in series [3] is “(27b) 111600 ± 1800 M^−1s^−1”. In series [4], `CCCC(=O)Nc1ccc(-c2nnc(-c3ccc(C(F)(F)F)cn3)nn2)nc1` [compound 35, 3-(5-Butyramido-2-pyridyl)-6-(5-(trifluoromethyl)-2-pyridyl)-1,2,4,5-tetrazine] came in with a k2/k2 ref of 1.84. In turn, `CCCC(=O)Nc1ccc(-c2nnc(-c3ccc(F)cn3)nn2)nc1` [compound 38, 3-(5-Fluoro-2-pyridyl)-6-(5-butanamido-2-pyridyl)-1,2,4,5-tetrazine] showed a k2/k2 ref in series [4] of 0.95. As to `Cc1nnc(-c2ccccn2)nn1` [compound 40, 3-(2-Pyridyl)-6-methyl-1,2,4,5-tetrazine], the k2/k2 ref in series [4] came out at 0.25. With `c1cc(-c2nnc(-c3ccncc3)nn2)ccn1` [compound 42, 3,6-Bis(4-pyridyl)-1,2,4,5-tetrazine], in series [4], the k2/k2 ref is reported as 0.83.
